According to patent US20220227760A1, “COMPOUNDS AND COMPOSITIONS FOR TREATING CONDITIONS ASSOCIATED WITH STING ACTIVITY” (IFM Due, Inc., priority 2019, published 2022):

Target: T1, Human STING (Homo sapiens, UniProt Q86WV6, G230A/H232R/R293Q/R71H)
T1 construct: host or cells: THP1-Dual KO-IFNAR2 cells
Assay: STING reporter assay (luciferase) in THP1-Dual KO-IFNAR2 cells stimulated with 2′3′cGAMP
Type: cell-based
Conditions: 15 μM 2′3′cGAMP, 24 h
Method: STING pathway activation by the compounds described herein is measured using THP1 Dual™ cells (KO-IFNAR2).
THP1-Dual™ KO-IFNAR2 Cells (obtained from invivogen) are maintained in RPMI, 10% FCS, 5 ml P/S, 2 mM L-glut, 10 mM Hepes, and 1 mM sodium pyruvate. Compounds are spotted in empty 384 well tissue culture plates (Greiner 781182) by Echo for a final concentration of 0.0017-100 μM. Cells are plated into the TC plates at 40 μL per well, 2×10E6 cells/mL. For activation with STING ligand, 2′3′cGAMP (MW 718.38, obtained from Invivogen), is prepared in Optimem media.
The following solutions are prepared for each 1×384 plate: • Solution A: 2 mL Optimem with one of the following stimuli: • 60 uL of 10 mM 2′3′cGAMP ->150 μM stock • Solution B: 2 mL Optimem with 60 μL Lipofectamine 2000->Incubate 5 min at RT
2 mL of solution A and 2 ml Solution B is mixed and incubated for 20 min at room temperature (RT). 20 uL of transfection solution (A+B) is added on top of the plated cells, with a final 2′3′cGAMP concentration of 15 μM. The plates are then centrifuged immediately at 340 g for 1 minute, after which they are incubated at 37° C., 5% CO2, >98% humidity for 24 h. Luciferase reporter activity is then measured. EC50 values were calculated by using standard methods known in the art.
Luciferase reporter assay: 10 μL of supernatant from the assay is transferred to white 384-plate with flat bottom and squared wells. one pouch of QUANTI-Luc™ Plus is dissolved in 25 mL of water. 100 μL of QLC Stabilizer per 25 mL of QUANTI-Luc™ Plus solution was added. 50 μL of QUANTI-Luc™ Plus/QLC solution per well is then added. Luminescence is measured on a Platereader (e.g., Spectramax I3X (Molecular Devices GF3637001)).
Luciferase reporter activity is then measured. EC50 values are calculated by using standard methods known in the art.

T1 sequence (Q86WV6 whole entry R71H/G230A/H232R/R293Q): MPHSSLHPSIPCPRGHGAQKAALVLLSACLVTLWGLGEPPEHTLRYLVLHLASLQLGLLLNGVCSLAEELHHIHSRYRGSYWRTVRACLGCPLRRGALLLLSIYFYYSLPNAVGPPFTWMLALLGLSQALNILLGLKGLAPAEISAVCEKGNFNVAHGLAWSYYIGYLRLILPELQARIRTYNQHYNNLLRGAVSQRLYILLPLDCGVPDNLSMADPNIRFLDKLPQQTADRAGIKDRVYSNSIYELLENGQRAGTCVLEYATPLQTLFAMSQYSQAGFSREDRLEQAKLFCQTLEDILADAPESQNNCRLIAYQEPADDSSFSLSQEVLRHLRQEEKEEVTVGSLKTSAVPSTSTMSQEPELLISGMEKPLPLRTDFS

Row | EC50 (class symbols) [µM] | EC50 (numeric bounds) [µM] | SMILES
1 | 5 to 30 |  | O=c1cc(-c2ccccc2)[nH]c(Nc2c[nH]c3cc(F)c(F)cc23)n1 [Compound 163, 2-[(5,6-difluoro-1H-indol-3-yl)amino]-6-phenyl-1H-pyrimidin-4-one]
2 |  | > 30 | O=c1cc[nH]c(Nc2c[nH]c3cc(F)c(F)cc23)n1 [Compound 164]
3 | 0.2 to 1 |  | c1ccc(-c2cnc(Nc3c[nH]c4ccccc34)s2)cc1 [Compound 165]
4 | 1 to 5 |  | c1ccc2cc(Nc3c[nH]c4ccccc34)ncc2c1 [Compound 166]
5 | 1 to 5 |  | c1ccc2nc(Nc3c[nH]c4ccccc34)ccc2c1 [Compound 167]
6 |  | > 100 | O=c1nc(Nc2c[nH]c3cccnc23)ccn1-c1ccccc1 [Compound 168]
7 | 5 to 30 |  | c1ccc(-c2ccc(Nc3c[nH]c4cccnc34)nc2)cc1 [Compound 169]

The next lines start with the compound.

Row | SMILES | EC50 (class symbols) [µM] | EC50 (numeric bounds) [µM]
8 | Fc1cnc2[nH]cc(Nc3ncc(-c4ccccc4)o3)c2c1 [Compound 101, N-[5-fluoro-1H-pyrrolo[2,3-b]pyridin-3-yl]-5-phenyl-1,3-oxazol-2-amine] | 0.2 to 1 | 
9 | c1ccc(-c2ccnc(Nc3c[nH]c4cccnc34)c2)cc1 [Compound 102, N-(4-phenylpyridin-2-yl)-1H-pyrrolo[3,2-b]pyridin-3-amine] | 5 to 30 | 
10 | c1ccc2sc(Nc3c[nH]c4ccccc34)nc2c1 [Compound 103] | 1 to 5 | 
11 | c1ccc(-c2ccnc(Nc3c[nH]c4ccccc34)n2)cc1 [Compound 158] | 1 to 5 | 
12 | c1ccc2nc(Nc3c[nH]c4ccccc34)ncc2c1 [Compound 159] | 5 to 30 | 
13 | O=c1cc(-c2ccccc2)[nH]c(Nc2c[nH]c3cccnc23)n1 [Compound 160] | 1 to 5 | 
14 | Fc1cc2[nH]cc(Nc3ccc4cc(C(F)(F)F)ccc4n3)c2cc1F [Compound 161, N-(5,6-difluoro-1H-indol-3-yl)-6-(trifluoromethyl)quinolin-2-amine] | 1 to 5 | 
15 | Fc1cc2[nH]cc(Nc3ccc4ccc(C(F)(F)F)cc4n3)c2cc1F [Compound 162] | 0.2 to 1 | 
